{"source": "ChEMBL document CHEMBL1201862", "about": "“PubChem BioAssay data set” (2004)", "key": {"[1]": {"target": "T1, Endoribonuclease toxin MazF (Escherichia coli K-12, UniProt P0AE70)", "T1 sequence (P0AE70 whole entry)": "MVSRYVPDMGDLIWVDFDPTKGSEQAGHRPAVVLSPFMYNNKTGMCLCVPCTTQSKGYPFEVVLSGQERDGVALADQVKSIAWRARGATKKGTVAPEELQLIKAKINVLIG", "test": "substrate-only fluorescence increase artefacts – biochemical, single-stranded RNase substrate, counter-screen for MazEF activator project, dose response (AID 588502)", "format": "functional"}, "[2]": {"target": "T2, Zinc finger protein mex-5 (Caenorhabditis elegans, UniProt Q9XUB2)", "T2 sequence (Q9XUB2 whole entry)": "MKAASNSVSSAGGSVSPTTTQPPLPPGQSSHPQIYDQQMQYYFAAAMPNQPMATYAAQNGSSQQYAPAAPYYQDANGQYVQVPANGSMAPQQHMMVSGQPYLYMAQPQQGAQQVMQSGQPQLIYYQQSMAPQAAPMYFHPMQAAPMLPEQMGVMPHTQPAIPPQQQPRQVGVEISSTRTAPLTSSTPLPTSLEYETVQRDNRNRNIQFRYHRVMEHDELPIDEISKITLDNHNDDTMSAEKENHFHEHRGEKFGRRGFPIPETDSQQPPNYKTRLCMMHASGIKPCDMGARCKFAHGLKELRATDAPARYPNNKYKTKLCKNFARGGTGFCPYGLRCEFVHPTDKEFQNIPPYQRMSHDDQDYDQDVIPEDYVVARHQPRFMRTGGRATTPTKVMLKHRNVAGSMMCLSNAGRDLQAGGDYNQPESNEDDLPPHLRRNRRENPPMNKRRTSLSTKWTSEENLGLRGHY", "test": "potency of MEX-5 RNA-binding blockers – biochemical, C. elegans, fluorescence polarization, dose response (AID 1960)"}, "[3]": {"test": "viability of HCT116 lacking mutant beta-catenin – cell-based, human colon tumor, dose response (AID 1045);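 further: cells exposed to compound for 60 hours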", "format": "functional"}, "A-375": {"system": "A-375", "test": "MITF: Counter assay: A375 proliferation Measured in Cell-Based System Using Plate Reader - 2084-03_Inhibitor_Dose_DryPowder_Activity. [Related pubchem assays (depositor defined):AID488944]", "format": "functional", "conditions": "Homo sapiens"}, "[4]": {"target": "T1, Endoribonuclease toxin MazF", "test": "activation of MazEF endoribonuclease cleavage – biochemical, fluorescence, single-stranded RNA substrate, uHTS hits, dose response (AID 588481)", "format": "functional"}, "[5]": {"target": "T3, RNA-binding protein pos-1 (Caenorhabditis elegans, UniProt G5EF15)", "T3 sequence (G5EF15 whole entry)": "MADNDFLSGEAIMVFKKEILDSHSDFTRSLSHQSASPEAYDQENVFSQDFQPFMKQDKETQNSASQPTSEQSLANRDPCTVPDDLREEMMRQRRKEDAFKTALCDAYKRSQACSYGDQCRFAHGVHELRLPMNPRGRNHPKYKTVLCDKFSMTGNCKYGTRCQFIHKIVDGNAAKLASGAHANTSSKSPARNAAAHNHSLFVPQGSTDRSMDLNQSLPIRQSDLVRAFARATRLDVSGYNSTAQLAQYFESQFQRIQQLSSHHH", "test": "disruptors of C. elegans POS-1 RNA interaction – biochemical, fluorescence polarization, dose response (AID 1964);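 further: purified POS-1 fused to maltose binding protein made in E. coli; potency of compounds blocking POS-1 binding to fluorescent RNA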"}, "[6]": {"test": "viability of PTEN-deleted HCT116 cells – cell-based, HCT116 PTEN knockout, dose response (AID 1047);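 further: cells exposed to compound for 60 hours before readout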", "format": "functional"}, "X-box-binding protein 1": {"target": "X-box-binding protein 1 (Homo sapiens, UniProt P17861)", "sequence (P17861 whole entry)": "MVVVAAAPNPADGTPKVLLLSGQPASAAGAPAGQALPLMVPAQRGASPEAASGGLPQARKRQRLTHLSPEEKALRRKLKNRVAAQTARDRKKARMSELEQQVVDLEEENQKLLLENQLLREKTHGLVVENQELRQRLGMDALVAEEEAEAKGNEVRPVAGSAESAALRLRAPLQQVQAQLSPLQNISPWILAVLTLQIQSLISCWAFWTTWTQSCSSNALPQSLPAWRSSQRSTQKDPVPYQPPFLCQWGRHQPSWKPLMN", "format": "functional, Cricetulus griseus"}, "HEK293 [7]": {"system": "HEK293", "test": "SAR Analysis of small molecule inhibitors of T-cell specific antigen receptor-induced NF-kB activation in a HEK-293T cell line using a luminescence assay - Set 2. [Related pubchem assays (depositor defined):AID435003, AID435012, AID489026]", "format": "functional, cell-based", "conditions": "Homo sapiens"}, "HEK293 [8]": {"system": "HEK293", "test": "HEK293T cell viability loss, resazurin readout – resazurin fluorescence, cytotoxicity control for NF-kB activator project, SAR follow-up (AID 493251)", "format": "functional, cell-based", "conditions": "Homo sapiens"}, "[9]": {"test": "HEK-293T cell viability reduction – luminescence, B-cell screen hits, cytotoxicity control for BCR NF-kB inhibitor project, dose response (AID 489021);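 further: HEK-293T cells carrying an NF-kB luciferase reporter; cells exposed to compound for about 14 hours before viability readout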", "format": "functional, cell-based"}, "Jurkat": {"system": "Jurkat", "test": "SAR Analysis of small molecule inhibitors of T-cell specific antigen receptor-induced NF-kB activation in a Jurkat cell line using a luminescence assay - Set 2. [Related pubchem assays (depositor defined):AID435003, AID435012, AID465]", "format": "functional, cell-based", "conditions": "Homo sapiens"}, "Cytochrome P450 2C19": {"target": "Cytochrome P450 2C19 (Homo sapiens, UniProt P33261)", "sequence (P33261 whole entry)": "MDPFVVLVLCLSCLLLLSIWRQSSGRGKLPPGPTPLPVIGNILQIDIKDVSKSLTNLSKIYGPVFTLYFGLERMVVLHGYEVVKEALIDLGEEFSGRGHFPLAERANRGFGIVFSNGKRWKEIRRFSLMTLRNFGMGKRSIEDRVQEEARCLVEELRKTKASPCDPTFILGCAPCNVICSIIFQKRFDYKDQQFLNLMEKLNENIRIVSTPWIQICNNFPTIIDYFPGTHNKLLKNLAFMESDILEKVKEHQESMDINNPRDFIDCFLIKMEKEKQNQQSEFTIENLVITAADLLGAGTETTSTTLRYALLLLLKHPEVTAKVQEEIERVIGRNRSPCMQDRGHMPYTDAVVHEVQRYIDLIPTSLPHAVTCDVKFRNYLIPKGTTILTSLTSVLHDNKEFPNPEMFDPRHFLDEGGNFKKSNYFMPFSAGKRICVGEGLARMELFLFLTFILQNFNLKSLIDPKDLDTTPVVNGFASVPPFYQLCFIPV", "test": "Cytochrome panel assay with activity outcomes. Panel member name: p450-cyp2c19 Compounds with AC50 equal or less than 10 uM are considered active", "format": "functional", "conditions": "read-out: AC50"}}, "note": "Active and inactive are the calls of the source.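 Wherever Absolute IC50 (XBP1) is given: confirmatory dose-response counter-screen serving a CHOP assay.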"}
{"compound": "Br.N=c1n(CC(=O)c2ccc([N+](=O)[O-])cc2)c2ccccc2n1Cc1ccc(Cl)cc1", "values": [{"measurement": "EC50", "setting": "[1]", "result": "1.93 µM (active)"}, {"measurement": "EC50", "setting": "[2]", "result": "> 300 µM (not active)"}, {"measurement": "EC50", "setting": "[3]", "result": "5.28 µM (active)"}, {"measurement": "AC50", "setting": "A-375", "result": "22.2 µM (active)"}, {"measurement": "EC50", "setting": "[4]", "result": "> 99 µM (inactive)"}, {"measurement": "EC50", "setting": "[5]", "result": "125 µM (active)"}, {"measurement": "EC50", "setting": "[6]", "result": "5.38 µM (active)"}, {"measurement": "Absolute IC50 (XBP1)", "setting": "X-box-binding protein 1", "result": 10, "unit": "µM"}]}
{"compound": "CN(C)C(=O)CCc1nc(-c2ccc(C(C)(C)C)cc2)no1", "values": [{"measurement": "IC50", "setting": "HEK293 [7]", "result": "48.5 µM (inactive)"}, {"measurement": "IC50", "setting": "HEK293 [8]", "result": "> 80 µM (inactive)"}, {"measurement": "IC50", "setting": "[9]", "result": "> 80 µM (inactive)"}, {"measurement": "IC50", "setting": "Jurkat", "result": "> 79 µM (inactive)"}, {"measurement": "AC50", "setting": "Cytochrome P450 2C19", "result": "22.4 µM (inconclusive)"}]}
